# According to patent US10925890B2, “Use of dextran sulfate” (TX MEDIC AB, priority 2014, dated 2021):
# Experiments:
# Format in all cases: in vivo
# [1] = Adverse effects / general health, mouse hind-limb ischemia study; conditions: 10 or 30 mg/kg s.c., up to day 35
# Method: The collective data of the study confirmed the therapeutic efficacy of dextran sulfate given s.c. for the treatment of occlusive peripheral arterial disease in the Balb/c mouse animal model.
# No adverse effect on general health was recorded in any of the groups. […] The findings reflect changes in blood vessel morphology, i.e. capillaries density increase, and blood vessels angiogenesis.
# [2] = Body weight, mouse critical limb ischemia study
# Excerpt: In total 60 male Balb/c mice, 9 weeks old, having an average body weight of 24.7 g at study initiation (day 0) were obtained from Harlan Laboratories, Israel. The minimal and maximal weight recorded in each group was within the range of ±20% of the group mean. Animals were handled according to the National Institute of Health (NIH) and the Association for Assessment and Accreditation of Laboratory Animal Care (AAALAC). Animals were housed in polysufone (PSU) cages (5/cage) measuring […], with stainless steel top grill having facilities for pelleted food and drinking water in glass-clear polycarbonate bottle; bedding: steam sterilized clean paddy husk (Harlan, Sani-chip, Cat #: 106S8216) was used and bedding material was changed along with the cage at least twice a week. Animals were fed ad libitum a commercial rodent diet (Teklad Certified Global 18% Protein Diet cat #: 106S8216). Animals had free access to autoclaved and acidified drinking water (pH between 2.5 and 3.5) obtained from the municipality supply. Animals were housed under standard laboratory conditions, air conditioned and filtered (HEPA F6/6) with adequate fresh air supply (minimum 15 air changes/hour). Animals were kept in a climate controlled environment. Temperatures range was 20-24° C. and RH range was 30-70% with 12 hours light and 12 hours dark cycle.
# Body weight was measured on study day −1 prior to surgery and once a week thereafter. […] From day 14 onwards a gradual increase in weight was observed. Accordingly, between day 0 and day 35 the mean increase in body weight ranged between 0.4 g to 1.7 g, see Table 2.
# [3] = system: tMCAO rat-stroke model; test: Forelimb placing test, tMCAO rat
# Method: (§1) Transient middle cerebral artery occlusion was performed according to the method previously described in Stroke 29, 2162-2170 (1998). The right common carotid artery (CCA) was exposed through a midline neck incision and carefully dissected free from surrounding nerves and fascia—from its bifurcation to the base of the skull. The occipital artery branches of the external carotid artery (ECA) were then isolated, and these branches were dissected and coagulated. The ECA was dissected further distally and coagulated along with the terminal lingual and maxillary artery branches, which was then divided. The internal carotid artery (ICA) was isolated and carefully separated from the adjacent vagus nerve, and the pterygopalatine artery was ligated close to its origin with a 5-0 nylon suture (SMI, Belgium). Next a 4-0 silk suture was tied loosely around the mobilized ECA stump, and a 4 cm length of 4-0 monofilament nylon suture (the tip of the suture was blunted by using a flame, and the suture was coated with polylysine, prior to insertion) was inserted through the proximal ECA into the ICA and thence into the circle of Willis, effectively occluding the MCA. […]
# For each subtest, animals were scored as followed: • 0.0=immediate response • 0.5=response within 2 seconds • 1.0=response of 2-3 seconds • 1.5=response of >3 seconds • 2.0=no response
# [4] = system: Critical Hind-Limb Ischemia Mouse Model; test: Immunohistochemistry and capillaries density (CD34, SMA, FITC-dextran), mouse hind-limb ischemia
# Method: Mice were sacrificed at study termination on day 36. Fluorescein isothiocyanate (FITC)—dextran 500000 Da conjugate 10 mg/ml was injected i.v. in a dose of 200 μl per mouse 5 minutes before sacrifice to all animals. Quadriceps muscle was dissected into coronary part. The muscle was fixed in 2.5% fresh paraformaldehyde (pH 7.4) for 24 hours and was then embedded in the paraffin for smooth muscle actin (SMA) with mouse monoclonal antibodies (anti-SMA Ab-1, clone 1A4, 1:800, Thermo scientific) and CD34 with anti CD34 (1:200, Cedralene) immunostaining. Paraffin embedding was done according the standard embedding procedure.
# Stained sections were evaluated and photographed by fluorescence microscope (E600; Nikon, Tokyo, Japan) equipped with plan fluor objectives connected to a CCD camera (DMX1200F; Nikon). […] Digital images were collected and analyzed using Image Pro+ software. Four sections of muscle samples were taken from the same areas of eight animals from groups 1M, 3M and 4M. The area of blood vessels was measured. Density was expressed as the mean number of capillaries per field of view. Total vessels represent all blood vessels in the measured area.
# [5] = system: tMCAO rat-stroke model; test: Body swing test, tMCAO rat; conditions: all treated rats; day 7 up to day 28
# Method: as §1, with “Belgium).” for “Belgium). Next a 4-0 silk suture was tied loosely around the mobilized ECA stump, and a 4 cm length of 4-0 monofilament nylon suture (the tip of the suture was blunted by using a flame, and the suture was coated with polylysine, prior to insertion) was inserted through the proximal ECA into the ICA and thence into the circle of Willis, effectively occluding the MCA.”
# The rat was held approximately one inch from the base of its tail. […] A swing was recorded whenever the rat moves its head out of the vertical axis to either side. Before attempting another swing, the rat was returned to the vertical position for the next swing to be counted. Twenty total swings were counted. […] Body swing scores were expressed as a percentage of rightward over total swings. […]
substance,measurement,setting,value
Dextran sulfate,Adverse effects in the treated animals,[1],did not cause any adverse effects
same,Mean weight change from day 0 to day 35,"[2]; group 2M, 10 mg/kg s.c. 3 times/week from day 8",1.0 g
same,Mean weight change from day 0 to day 35,"[2]; group 3M, 30 mg/kg s.c. 3 times/week from day 8",1.7 g
same,Mean weight change from day 0 to day 35,"[2]; group 4M, 30 mg/kg s.c. 1 time/week from day 8",1.0 g
same,"Mean body weight, differences between the groups","[2]; throughout the study, two-way ANOVA, Bonferroni",no statistically significant differences
same,Forelimb placement test compared to vehicle control,"[3]; all treated rats, starting on day 14 up to day 28",statistically significant improvement
same,"Forelimb placement test, improvement in sensory motor deficits","[3]; group 3M (15 mg/kg daily), first testing on day 7",reached statistical significance
same,Angiogenesis in ischemic (right) vs non-ischemic (left) limb,"[4]; CD34 and FITC-dextran capillaries density, FIG. 4",only induce angiogenesis in the ischemic tissue
same,Number of CD34 positive capillaries compared to control group,"[4]; groups 3M and 4M (30 mg/kg) vs 1M, day 35",larger
same,FITC-dextran staining of capillaries (functional capillaries),"[4]; groups 3M and 4M, ischemic limb",functioning and active
same,"SMA staining, capillaries formation",[4]; treated groups vs control,same increase in capillaries formations
same,Body swing test compared to vehicle control,[5],statistically significant improvement
